Key:
[1] = system: crash & burn (SQW 226) mutant zebrafish embryos; assay: chemical suppressor screen: whole mount P-H3 immunostaining of crash & burn embryos; assay type: in vivo, zebrafish (Danio rerio)
[2] = system: wild-type zebrafish embryos; details: in vivo
zebrafish embryos [3] = details: cited from earlier work; for apoptosis in zebrafish embryos: in vivo
zebrafish embryos [4] = assay: FACS analysis of the cell cycle of cells from treated embryos; assay type: in vivo; details: embryos treated with 10 and 100 μM 8G16
Text: Flow cylometric cell sorting analysis of zebrafish embryos to identify defects in cell cycle: To analyze the DNA content of the embryos wild-type and mutant embryonic cells were subjected to DNA flow cytometric cell sorting (FACS). We have shown that the FACS analysis of DNA content can be performed on cells from a single embryo allowing analysis and comparison of mutant and wild-type cell cycle phenotypes.
Embryos were anesthetized with tricaine (3-amino benzoic acid ethylester also called ethyl m-aminobenzoate, in a powdered form from Sigma, Cat.# A-5040). Tricaine solution for anesthetizing fish was prepared by combining the following: 400 mg tricaine powder, 97.9 ml DD water, and about 2.1 ml 1 M Tris (pH 9), pH was adjusted to about 7. Before use 4.2 ml of Tricaine solution was mixed with 100 ml clean tank water.
The embryos were dechorionated as described above and resuspended in a small volume of DMEM −20% FBS in a microtube. Embryos were disaggregated and resuspend in 1-2 ml of DMEM+20% FBS. The solution was passed through 105 μm mesh, and consequently 40 μm mesh. The total volume was raised to 5 ml and the cells' in the sample was counted using hemocytometer. Volume equaling 2×10^6 cells was transferred in 15 ml conical tube and filled to a total volume of 5 ml with PBS. The sample was spinned at 1200 rpm for 10 minutes and the liquid was aspirated off. […]

[5] = system: cds mutant zebrafish embryos; assay: rescue of polyploid zebrafish mutant cds; details: in vivo
Text: FIGS. 6A-6E show the ability of 8G16 to rescue a crash&burn (crb) zebrafish mutant (FIGS. 6B, untreated crb mutant and 6D 8G16 treated crb mutant) but not another polyploid zebrafish mutant cds (FIGS. 6C, untreated cds mutant and 6E, 8G16 treated cds mutant) compared to a wild-type, untreated embryo (FIG. 6A).

[6] = system: zebrafish (wild-type and SQW mutant strains); details: in vivo
[7] = 9-20 μM, 24 hours of development

Row | Structure (SMILES) | P-H3 staining in crash and burn embryos ([1]; zebrafish, in vivo) | P-H3 staining in wildtype embryos [2] | also measured
1 | O=C(Nc1cc(S(=O)(=O)c2ccc(Cl)cc2)ccc1Cl)c1cc(I)cc(I)c1O [Compound 6, 3,5-Diiodo-N-[2-chloro-5-(4-chloro-benzenesulfonyl)-phenyl]-2-hydroxy-benzamide] | decrease | decrease | –
2 | O=C(O)c1cc([N+](=O)[O-])c(Nc2cccc3ccccc23)c([N+](=O)[O-])c1 [Compound 12, 4-(Naphthalen-1-ylamino)-3,5-dinitro-benzoic acid] | – | increase | –
3 | Nc1cc([N+](=O)[O-])ccc1NNC(=O)Nc1ccccc1 [Compound 7, 1-(2-Amino-4-nitro-phenylamino)-3-phenyl-urea] | decrease | decrease | –
4 | CC[C@@]1(O)C(=O)OCc2c1cc1n(c2=O)Cc2cc3ccccc3nc2-1 [camptothecin] | – | – | apoptosis in zebrafish embryos (zebrafish embryos [3]): cause apoplosis
5 | Cc1cc(O)c(C(=O)C=Cc2ccc(O)cc2)c(=O)o1 [Compound 3, 4-Hydroxy-3-[3-(4-hydroxy-phenyl)-acryloyl]-6-methyl-pyran-2-one] | decrease | decrease | –
6 | COC(=O)Nc1nc2ccc(C(=O)c3cccs3)cc2[nH]1 [nocodazole] | – | – | effect of treating post-MBT embryos (zebrafish embryos [3]; post-MBT embryos): metaphase arrest and apoptosis
7 | NC(=O)NO [hydroxyurea] | – | – | apoptosis in zebrafish embryos (zebrafish embryos [3]): cause apoplosis
8 | CNc1ccc2oc(C[C@H]3O[C@@]4(CC[C@H]3C)O[C@H]([C@H](C)C(=O)c3ccc[nH]3)[C@H](C)C[C@H]4C)nc2c1C(=O)O [A23187] | – | – | fate of metaphase arrested cells (zebrafish embryos [3]; metaphase arrested cells): driven into G1
9 | Cc1ccc(S(=O)(=O)Oc2ccc([N+](=O)[O-])cc2[N+](=O)[O-])cc1 [Compound 5, Toluene-4-sulfonic acid 2,4-dinitro-phenyl ester] | decrease | decrease | –
10 | O=C(CSC1CC(=O)N(c2cccc(Cl)c2)C1=O)Nc1cccc(F)c1 (stereo not shown) [Compound 13, 2-[1-(3-Chloro-phenyl)-2,5-dioxo-pyrrolidin-3-ylsulfanyl]-N-(3-fluoro-phenyl)-acetamide] | – | increase | –
11 | CC1=CCC2(CO)COC(c3ccccc3O)C1C2 (stereo not shown) [Compound 14, 2-(5-Hydroxymethyl-8-methyl-3-oxa-bicyclo[3.3.1]non-7-en-2-yl)-phenol] | – | increase | –
12 | C=CCOc1c(Br)cc(S(=O)(=O)c2cc(Br)c(O)c(Br)c2)cc1Br [Compound 2, 4-(4-Allyloxy-3,5-dibromo-benzenesulfonyl)-2,6-dibromo-phenol] | decrease | decrease | –
13 | COC(=O)CCC(=O)Nc1ccccc1Cl [Compound 10, N-(2-Chloro-phenyl)-succinamic acid methyl ester] | – | increase | –
14 | O=C(Nc1ncccc1O)C12CC3CC(CC(C3)C1)C2 [8G16, Adamantane-1-carboxylic acid (3-hydroxy-pyridin-2-yl)-amide] | – | – | phenotypic appearance of crash & burn ([1]; 10 μM 8G16, P-H3 antibody staining, genotype still crb): prevents; P-H3 staining of treated embryos [1, 7]: normal; developmental delay of treated embryos [1, 7]: slight developmental delay; crash & burn mutants detected at 24 hours of development ([1]; doses of 9, 12, 16 and 20 μM, 30-60 embryos at each dose): no crash & burn mutants were detected; crash and burn cell cycle phenotype ([1]; through 24 hours of development): prevents; rescue of crash&burn (crb) zebrafish mutant ([1]; zebrafish, in vivo): rescue; effect on normal embryos [2]: without affecting; toxicity or cell cycle affects on wild-type embryos [2]: without overt toxicity or cell cycle affects; cell cycle phase distribution (zebrafish embryos [4]): accumulation of cell in the G1/S phase; rescue of polyploid zebrafish mutant cds [5]: not
15 | N=c1ccccn1CC(=O)c1ccc(Cl)c(Cl)c1 [Compound 8, 1-(3,4-Dichloro-phenyl)-2-(2-imino-2H-pyridin-1-yl)-ethanone] | decrease | decrease | –
16 | Cc1ccccc1OCC(=O)Nc1ccccc1C(=O)O [Compound 9, 2-(2-o-Tolyloxy-acetylamino)-benzoic acid] | decrease | decrease | –
17 | CC(=O)C1=C(C)NC(=O)NC1c1cccc(O)c1 (stereo not shown) [Compound 15, 5-Acetyl-4-(3-hydroxy-phenyl)-6-methyl-3,4-dihydro-1H-pyrimidin-2-one] | – | increase | –
18 | O=C(c1ccccc1)C1C(=O)C2C=CC=CC2C1=O (stereo not shown) [Compound 4, 2-Benzoyl-3a,7a-dihydro-indene-1,3-dione] | decrease | decrease | –
19 | Cc1c2ccccc2c(C)c2c1ccc1ccccc12 [DMBA, 7, 12 Dimethyl benzanlhracene] | – | – | fish that developed tumors [6]: 10.4%; tumor types [6]: more brain and liver tumors
20 | C[C@@]1(CO)[C@H](O)CC[C@@]2(C)[C@H]1CC[C@H]1C[C@@H]3C[C@@]12CC[C@]3(O)CO [aphidicolin, reference compound] | – | – | P-H3 staining in all embryos, including crash & burn ([1]; offspring of crash & burn heterozygotes raised in the presence of the chemical): decreased; apoptosis in zebrafish embryos (zebrafish embryos [3]): cause apoplosis
21 | O=C(O)CCCC(=O)Nc1cc(C(F)(F)F)ccc1Cl [Compound 11, 4-(2-Chloro-5-trifluoromethyl-phenylcarbamoyl)-butyric acid] | – | increase | –
